Values quoted from earlier work in patent publication US5834251A, “Methods of modifying carbohydrate moieties” (Alko Group Ltd., priority 1994, dated 1998).

Target: α-2,6 Sialyltransferase, EC 2.4.99.1, from rat liver (Rattus norvegicus, UniProt P13721)
Conditions: read-out: Km for the sugar donor CMP-NeuAc; commercially available enzyme, such as that from rat liver

Sequence of α-2,6 Sialyltransferase, EC 2.4.99.1, from rat liver (P13721 whole entry): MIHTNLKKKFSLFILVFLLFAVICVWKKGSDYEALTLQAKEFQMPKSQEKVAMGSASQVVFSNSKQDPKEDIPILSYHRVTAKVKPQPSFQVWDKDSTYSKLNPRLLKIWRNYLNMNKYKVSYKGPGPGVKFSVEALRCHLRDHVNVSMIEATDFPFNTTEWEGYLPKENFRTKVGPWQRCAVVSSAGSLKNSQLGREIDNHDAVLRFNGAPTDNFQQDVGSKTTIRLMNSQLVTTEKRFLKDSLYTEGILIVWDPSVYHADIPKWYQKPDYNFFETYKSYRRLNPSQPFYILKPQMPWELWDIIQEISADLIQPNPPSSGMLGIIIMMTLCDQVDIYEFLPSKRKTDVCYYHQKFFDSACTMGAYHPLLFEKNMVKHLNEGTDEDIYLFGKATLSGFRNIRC

CC(=O)NC1C(O)CC(OP(=O)(O)OCC2OC(n3ccc(N)nc3=O)C(O)C2O)(C(=O)O)OC1C(O)C(O)CO (stereo not shown) [CMP-NeuAc, CMP-N-acetylneuraminic acid]
Km: 85 µM
